# Test results published in patent EP4796551A1, “ZWITTERIONIC PHOSPHOLIPID COMPOUND AND LIPID NANOPARTICLE CONTAINING THE SAME” (National University Corporation Hokkaido University, priority 2023, dated 2025).
# How the values were obtained:
# [1] = Ribogreen assay, mRNA encapsulation efficiency of LNP; assay type: physicochemical; conditions: mRNA-LNP formulation phospholipid:CL4F6:Chol:PEG-DMG 10:50:40:1.0, Fluc mRNA
# Procedure: (§1) Ethanol solutions containing each phospholipid, CL4F6, Chol, and PEG2000-dimirystoylglycerol (PEG-DMG) at the molar ratio of 10:50:40:1.0 were prepared at the total lipid concentration of 16 mM. For fluorescent labeling of LNPs, 0.5 mol% of DiI or DiR was added to the above solutions. The firefly luciferase (Fluc)-encoding mRNA (TriLink) was dissolved in a 25 mM acetate buffer (pH 4.0). LNPs were prepared by mixing the lipids in ethanol and RNA in an aqueous solution using an iLiNP device at a total flow rate (TFR) of 0.5 mL/min and a flow rate ratio (FRR) (RNA flow rate/lipid flow rate) of 3. The nitrogen to phosphate (N/P) ratio was adjusted to 6. Syringe pumps (Harvard apparatus) were used to control the flow rate of the solutions. The resulting LNP solutions were then dialyzed for 2 hours or more at 4 °C against phosphate buffered saline without Ca^2+ and Mg^2+ (PBS(-)) using Spectra/Por 4 dialysis membranes (molecular weight cut-off 12,000-14,000 Da, Spectrum Laboratories). The LNP solutions were concentrated by ultrafiltration using an Amicon Ultra-15 unit (MWCO 100 kDa, Millipore) as needed.
# (§2) The ζ-average particle size, polydispersity index (PDI), and ζ-potential of the LNPs were measured by means of a Zetasizer Nano ZS ZEN3600 instrument (Malvern Instruments). The encapsulation efficiency and total concentration of mRNA were measured by a Ribogreen assay according to a conventional method.
# [2] = Particle size, PDI and ζ-potential of mRNA-LNP (Zetasizer Nano ZS); assay type: physicochemical; conditions: mRNA-LNP formulation phospholipid:CL4F6:Chol:PEG-DMG 10:50:40:1.0, Fluc mRNA
# Procedure: as §1, §2
smiles,measurement,setting,value
"CCCCCCCC/C=C\CCCCCCCC(=O)OC[C@H](COP(=O)(O)OCCNCCC(=O)OC(CC)CC)OC(=O)CCCCCCC/C=C\CCCCCCCC [DOPE-C3_α2, (R)-2,3-bis(oleoyloxy)propyl (2-((3-oxo-3-(pentan-3-yloxy)propyl)ammonio)ethyl) phosphate]",mRNA encapsulation rate %,[1]; Table 3,97.2%
same,Number average particle size (nm),[2]; Table 3,54 nm
same,PDI,[2]; Table 3,0.20
same,ζ-average particle size (nm),[2]; Table 3,91 nm
same,ζ-potential (mV),[2]; Table 3,-10.5 mV
"CCCCCCCC/C=C\CCCCCCCC(=O)OC[C@H](COP(=O)(O)OCCNCCC(=O)OCC(C)CCC)OC(=O)CCCCCCC/C=C\CCCCCCCC (stereo partly drawn) [DOPE-C5_β1, (R)-2,3-bis(oleoyloxy)propyl (2-((3-((2-methylpentyl)oxy)-3-oxopropyl)ammonio)ethyl) phosphate]",mRNA encapsulation rate %,[1]; Table 2,95.9%
same,Number average particle size (nm),[2]; Table 2,60 nm
same,PDI,[2]; Table 2,0.21
same,ζ-average particle size (nm),[2]; Table 2,94 nm
same,ζ-potential (mV),[2]; Table 2,-6.4 mV
"CCCCCCCC/C=C\CCCCCCCC(=O)OC[C@H](COP(=O)(O)OCCNCCC(=O)OC(CCC)CCC)OC(=O)CCCCCCC/C=C\CCCCCCCC [DOPE-C4_α3, (R)-2,3-bis(oleoyloxy)propyl (2-((3-(heptan-4-yloxy)-3-oxopropyl)ammonio)ethyl) phosphate]",mRNA encapsulation rate %,[1]; Table 3,97.1%
same,Number average particle size (nm),[2]; Table 3,52 nm
same,PDI,[2]; Table 3,0.21
same,ζ-average particle size (nm),[2]; Table 3,91 nm
same,ζ-potential (mV),[2]; Table 3,-12.0 mV
"CCCCCCCC/C=C\CCCCCCCC(=O)OC[C@H](COP(=O)(O)OCCNCCC(=O)OCCCC)OC(=O)CCCCCCC/C=C\CCCCCCCC [DOPE-C4, (R)-2,3-bis(oleoyloxy)propyl (2-((3-butoxy-3-oxopropyl)ammonio)ethyl) phosphate]",mRNA encapsulation rate %,[1]; Table 1,91.2%
same,Number average particle size (nm),[2]; Table 1,58 nm
same,PDI,[2]; Table 1,0.17
same,ζ-potential (mV),[2]; Table 1,-5.0 mV
same,ζ-average particle size (nm),"[2]; Table 1, N/P 6",87 nm
"CCCCCCCC/C=C\CCCCCCCC(=O)OC[C@H](COP(=O)(O)OCCNCCC(=O)OCCC(C)CCC=C(C)C)OC(=O)CCCCCCC/C=C\CCCCCCCC (stereo partly drawn) [DOPE-Cit, (R)-2,3-bis(oleoyloxy)propyl (2-((3-((3,7-dimethyloct-6-en-1-yl)oxy)-3-oxopropyl)ammonio)ethyl) phosphate]",mRNA encapsulation rate %,[1]; Table 2,95.9%
same,Number average particle size (nm),[2]; Table 2,65 nm
same,PDI,[2]; Table 2,0.07
same,ζ-average particle size (nm),[2]; Table 2,85 nm
same,ζ-potential (mV),[2]; Table 2,-6.1 mV
"CCCCCCCC/C=C\CCCCCCCC(=O)OC[C@H](COP(=O)(O)OCCNCCC(=O)OCCCCCC)OC(=O)CCCCCCC/C=C\CCCCCCCC [DOPE-C6, (R)-2,3-bis(oleoyloxy)propyl (2-((3-(hexyloxy)-3-oxopropyl)ammonio)ethyl) phosphate]",mRNA encapsulation rate %,[1]; Table 1,91.5%
same,Number average particle size (nm),[2]; Table 1,59 nm
same,PDI,[2]; Table 1,0.15
same,ζ-potential (mV),[2]; Table 1,-1.4 mV
same,ζ-average particle size (nm),"[2]; Table 1, N/P 6",86 nm
"CCCCCCCCCCCCCCCCCC(=O)OC[C@H](COP(=O)([O-])OCC[N+](C)(C)C)OC(=O)CCCCCCCCCCCCCCCCC [DSPC, 1,2-Distearoyl-sn-glycero-3-phosphocholine, reference compound]",mRNA encapsulation rate %,[1]; Table 1,95.7%
same,Number average particle size (nm),[2]; Table 1,56 nm
same,PDI,[2]; Table 1,0.08
same,ζ-potential (mV),[2]; Table 1,-3.6 mV
same,ζ-average particle size (nm),"[2]; Table 1, N/P 6",75 nm
